Data on 18 molecules can be found in US11020395B2, “Cycloalkyl substituted triazole compounds as agonists of the APJ receptor” (AMGEN INC., priority 2016, dated 2021).

This test deals with human APJ receptor (Homo sapiens (Human), UniProt P35414). The test can be described thus: [35S]GTPγS binding assay on membranes from CHO cells stably expressing human APJ receptor. The format is biochemical. As to conditions: [35S]GTPγS SPA, read-out: Activity hAPJ SPA EC50 IP. A digest of the protocol: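 Agonist-stimulated [35S]GTPγS binding measured on membranes of a stable human APJ CHO line, 90 min at room temperature, with GDP, MgCl2 and NaCl levels optimized beforehand. Means of independent runs fitted by non-linear regression to give EC50.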
Sequence of human APJ receptor (P35414 whole entry): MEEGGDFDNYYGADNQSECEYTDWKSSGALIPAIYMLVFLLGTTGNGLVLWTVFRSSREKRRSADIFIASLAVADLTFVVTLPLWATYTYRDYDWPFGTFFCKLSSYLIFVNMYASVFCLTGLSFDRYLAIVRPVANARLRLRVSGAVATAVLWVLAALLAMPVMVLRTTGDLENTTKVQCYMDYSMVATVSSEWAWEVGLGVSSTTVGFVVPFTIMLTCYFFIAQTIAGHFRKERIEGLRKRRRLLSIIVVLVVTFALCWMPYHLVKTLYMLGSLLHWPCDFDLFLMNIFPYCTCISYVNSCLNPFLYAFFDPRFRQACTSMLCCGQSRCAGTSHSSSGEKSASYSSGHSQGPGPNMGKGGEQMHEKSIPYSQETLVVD

Regarding “(1R,2S)-1-(5-chloropyrimidin-2-yl)-N-(4-(2,6-dimethoxyphenyl)-5-((R)-3-oxocyclopentyl)-4H-1,2,4-triazol-3-yl)-1-methoxypropane-2-sulfonamide or (1R,2S)-1-(5-chloropyrimidin-2-yl)-N-(4-(2,6-dimethoxyphenyl)-5-((S)-3-oxocyclopentyl)-4H-1,2,4-triazol-3-yl)-1-methoxypropane-2-sulfonamide [Example 224.0]”, the EC50 came to 38 nM.
For the molecule `COc1ncnc(OC)c1-n1c(NS(=O)(=O)[C@@H](C)[C@H](OC)c2ncc(Cl)cn2)nnc1[C@@H]1CC[C@@H]1F` (single isomer, unassigned) [Example 179.0, (1R,2S)-1-(5-chloropyrimidin-2-yl)-N-(4-(4,6-dimethoxypyrimidin-5-yl)-5-((1S,2S)-2-fluorocyclobutyl)-4H-1,2,4-triazol-3-yl)-1-methoxypropane-2-sulfonamide or (1R,2S)-1-(5-chloropyrimidin-2-yl)-N-(4-(4,6-dimethoxypyrimidin-5-yl)-5-((1R,2R)-2-fluorocyclobutyl)-4H-1,2,4-triazol-3-yl)-1-methoxypropane-2-sulfonamide], the EC50 stood at 46 nM.
As to `COc1cccc(OC)c1-n1c(NS(=O)(=O)[C@@H](C)[C@H](OC)c2ncc(Cl)cn2)nnc1C1CC(F)(F)C1` [Example 147.0], the EC50 was 6.4 nM.
Take “(1R,2S)-1-(5-chloropyrimidin-2-yl)-N-(5-((R)-2,2-dimethylcyclopropyl)-4-(tetrahydro-2H-pyran-4-yl)-4H-1,2,4-triazol-3-yl)-1-methoxypropane-2-sulfonamide or (1R,2S)-1-(5-chloropyrimidin-2-yl)-N-(5-((S)-2,2-dimethylcyclopropyl)-4-(tetrahydro-2H-pyran-4-yl)-4H-1,2,4-triazol-3-yl)-1-methoxypropane-2-sulfonamide [Example 20.0]”: the EC50 amounted to 840 nM.
Turning to `COc1cccc(OC)c1-n1c(NS(=O)(=O)[C@@H](C)[C@H](OC)c2ncc(Cl)cn2)nnc1[C@H]1C[C@H](Cl)C1` (single isomer, unassigned) [Example 154.0, (1R,2S)-1-(5-chloropyrimidin-2-yl)-N-(4-(2,6-dimethoxyphenyl)-5-((1r,3S)-3-chlorocyclobutyl)-4H-1,2,4-triazol-3-yl)-1-methoxypropane-2-sulfonamide or (1R,2S)-1-(5-chloropyrimidin-2-yl)-N-(4-(2,6-dimethoxyphenyl)-5-((1s,3R)-3-chlorocyclobutyl)-4H-1,2,4-triazol-3-yl)-1-methoxypropane-2-sulfonamide], the EC50 was found to be 0.18 nM.
Under `COc1ncnc(OC)c1-n1c(NS(=O)(=O)[C@@H](C)[C@H](OC)c2ncc(Cl)cn2)nnc1[C@H]1C[C@@H](C(F)(F)F)C1` (single isomer, unassigned) [Example 178.0, (1R,2S)-1-(5-chloropyrimidin-2-yl)-N-(4-(4,6-dimethoxypyrimidin-5-yl)-5-((1s,3R)-3-(trifluoromethyl)cyclobutyl)-4H-1,2,4-triazol-3-yl)-1-methoxypropane-2-sulfonamide or (1R,2S)-1-(5-chloropyrimidin-2-yl)-N-(4-(4,6-dimethoxypyrimidin-5-yl)-5-((1r,3S)-3-(trifluoromethyl)cyclobutyl)-4H-1,2,4-triazol-3-yl)-1-methoxypropane-2-sulfonamide] stands 6.5 nM; under `COc1ncnc(OC)c1-n1c(NS(=O)(=O)[C@@H](C)[C@H](OC)c2ccc(Cl)cn2)nnc1C1CCC1` (single isomer, unassigned) [Example 91.0, (1R,2S)-1-(5-chloropyridin-2-yl)-N-(5-cyclobutyl-4-(4,6-dimethoxypyrimidin-5-yl)-4H-1,2,4-triazol-3-yl)-1-methoxypropane-2-sulfonamide or (1S,2R)-1-(5-chloropyridin-2-yl)-N-(5-cyclobutyl-4-(4,6-dimethoxypyrimidin-5-yl)-4H-1,2,4-triazol-3-yl)-1-methoxypropane-2-sulfonamide], 2.9 nM; under `COc1cccc(OC)c1-n1c(NS(=O)(=O)[C@@H](C)[C@H](OC)c2ncc(Cl)cn2)nnc1C1CC2(CCC2)C1` [Example 236.0, (1R,2S)-1-(5-chloro-2-pyrimidinyl)-N-(4-(2,6-dimethoxyphenyl)-5-(spiro[3.3]heptan-2-yl)-4H-1,2,4-triazol-3-yl)-1-methoxy-2-propanesulfonamide], 0.99 nM.
In the case of `CO[C@H](c1ncc(Cl)cn1)[C@H](C)S(=O)(=O)Nc1nnc(C2CCC2)n1-c1c(F)cccc1F` [Example 94.0, (1R,2S)-1-(5-chloropyrimidin-2-yl)-N-(5-cyclobutyl-4-(2,6-difluorophenyl)-4H-1,24-triazol-3-yl)-1-methoxypropane-2-sulfonamide], the EC50 stood at 0.72 nM.
Take “(2S,3R)-3-(5-chloropyrimidin-2-yl)-N-(5-((R)-2,2-difluorocyclopropyl)-4-(2,6-dimethoxyphenyl)-4H-1,2,4-triazol-3-yl)butane-2-sulfonamide or (2S,3R)-3-(5-chloropyrimidin-2-yl)-N-(5-((S)-2,2-difluorocyclopropyl)-4-(2,6-dimethoxyphenyl)-4H-1,2,4-triazol-3-yl)butane-2-sulfonamide [Example 221.0]”: the 50% effective concentration (EC50) turned out to be 18 nM.
As for `COc1ncnc(OC)c1-n1c(NS(=O)(=O)[C@@H](C)[C@H](OC)c2ncc(Cl)cn2)nnc1C1CCCC1` [Example 19.0, (1R,2S)-1-(5-chloropyrimidin-2-yl)-N-(5-cyclopentyl-4-(4,6-dimethoxypyrimidin-5-yl)-4H-1,2,4-triazol-3-yl)-1-methoxypropane-2-sulfonamide], the EC50 amounted to 1.1 nM.
As to `COc1cccc(OC)c1-n1c(NS(=O)(=O)[C@@H](C)[C@H](OC)c2ncc(Cl)cn2)nnc1[C@H]1C[C@H](C(F)(F)F)C1` (single isomer, unassigned) [Example 150.0, (1R,2S)-1-(5-chloropyrimidin-2-yl)-N-(4-(2,6-dimethoxyphenyl)-5-((1r,3S)-3-(trifluoromethyl)cyclobutyl)-4H-1,2,4-triazol-3-yl)-1-methoxypropane-2-sulfonamide or (1R,2S)-1-(5-chloropyrimidin-2-yl)-N-(4-(2,6-dimethoxyphenyl)-5-((1s,3R)-3-(trifluoromethyl)cyclobutyl)-4H-1,2,4-triazol-3-yl)-1-methoxypropane-2-sulfonamide], the EC50 was 6.8 nM.
As to `COc1cccc(OC)c1-n1c(NS(=O)(=O)[C@@H](C)[C@H](OC)c2ncc(Cl)cn2)nnc1[C@H]1C[C@H](OC)C1` (single isomer, unassigned) [Example 155.0, (1R,2S)-1-(5-chloropyrimidin-2-yl)-N-(4-(2,6-dimethoxyphenyl)-5-((1r,3S)-3-methoxycyclobutyl)-4H-1,2,4-triazol-3-yl)-1-methoxypropane-2-sulfonamide or (1R,2S)-1-(5-chloropyrimidin-2-yl)-N-(4-(2,6-dimethoxyphenyl)-5-((1s,3R)-3-methoxycyclobutyl)-4H-1,2,4-triazol-3-yl)-1-methoxypropane-2-sulfonamide], the EC50 came out at 9.4 nM.
The result for “(1R,2S)-1-(5-chloropyrimidin-2-yl)-N-(4-(4,6-dimethoxypyrimidin-5-yl)-5-((R)-6-oxaspiro[2.5]octan-1-yl)-4H-1,2,4-triazol-3-yl)-1-methoxypropane-2-sulfonamide or (1R,2S)-1-(5-chloropyrimidin-2-yl)-N-(4-(4,6-dimethoxypyrimidin-5-yl)-5-((S)-6-oxaspiro[2.5]octan-1-yl)-4H-1,2,4-triazol-3-yl)-1-methoxypropane-2-sulfonamide [Example 103.0]” reads 39 nM.
Take `COc1ncnc(OC)c1-n1c(NS(=O)(=O)[C@@H](C)[C@H](OC)c2ncc(Cl)cn2)nnc1[C@H]1C[C@@H](F)C1` (single isomer, unassigned) [Example 163.0, (1R,2S)-1-(5-chloropyrimidin-2-yl)-N-(4-(4,6-dimethoxypyrimidin-5-yl)-5-((1s,3R)-3-fluorocyclobutyl)-4H-1,2,4-triazol-3-yl)-1-methoxypropane-2-sulfonamide or (1R,2S)-1-(5-chloropyrimidin-2-yl)-N-(4-(4,6-dimethoxypyrimidin-5-yl)-5-((1r,3S)-3-fluorocyclobutyl)-4H-1,2,4-triazol-3-yl)-1-methoxypropane-2-sulfonamide]: the EC50 worked out at 46 nM.
With `COc1ncnc(OC)c1-n1c(NS(=O)(=O)[C@@H](C)[C@H](C)c2ncc(Cl)cn2)nnc1C1CCC1` [Example 85.0, (2S,3R)-3-(5-chloro-2-pyrimidinyl)-N-(5-cyclobutyl-4-(4,6-dimethoxy-5-pyrimidinyl)-4H-1,2,4-triazol-3-yl)-2-butanesulfonamide], the EC50 is 1.7 nM.
As for `COCC(COC)n1c(NS(=O)(=O)[C@@H](C)[C@H](OC)c2ncc(Cl)cn2)nnc1[C@H]1C[C@H](CO)C1` (single isomer, unassigned) [Example 130.0, (1R,2S)-1-(5-chloropyrimidin-2-yl)-N-(4-(1,3-dimethoxypropan-2-yl)-5-((1r,3S)-3-(hydroxymethyl)cyclobutyl)-4H-1,2,4-triazol-3-yl)-1-methoxypropane-2-sulfonamide or (1R,2S)-1-(5-chloropyrimidin-2-yl)-N-(4-(1,3-dimethoxypropan-2-yl)-5-((1s,3R)-3-(hydroxymethyl)cyclobutyl)-4H-1,2,4-triazol-3-yl)-1-methoxypropane-2-sulfonamide], the EC50 amounted to 1500 nM.
The result for `COc1ncnc(OC)c1-n1c(NS(=O)(=O)[C@@H](C)[C@H](OC)c2ncc(Cl)cn2)nnc1C1CC(Cl)(Cl)C1` [Example 203.0, (1R,2S)-1-(5-chloropyrimidin-2-yl)-N-(5-(3,3-dichlorocyclobutyl)-4-(4,6-dimethoxypyrimidin-5-yl)-4H-1,2,4-triazol-3-yl)-1-methoxypropane-2-sulfonamide] reads 10 nM.
